Reference: patent EP3868759A1, “2,3,5-SUBSTITUTED PYRROLO[2,3-B]PYRIDINES AS ERBB MODULATORS USEFUL FOR TREATING CANCER” (PearlRiver Bio GmbH, priority 2020, dated 2021)

Legend:
Cuto-17 = experiment: CellTiter-Glo cell viability, Cuto-17; assay type: cell-based; conditions: CUTO17, 72 h, read-out: Cuto-17 CTG IC50
Method: (§1) The CellTiter-Glo Luminescent Cell Viability Assay (Promega) is a homogeneous method of determining the number of viable cells in culture. It is based on quantification of ATP, indicating the presence of metabolically active cells. Cells are seeded on day 1 at cell numbers that assure assay linearity and optimal signal intensity. After incubation for 24h in humidified chambers at 37°C and 5% CO2, compounds in DMSO are added at different concentrations. Cells are further incubated for 72 h at 37°C and 5% CO2. Cells treated with the compound vehicle DMSO are used as positive controls and cells treated with 10 µM Staurosporine serve as negative controls. At day 5 the CellTiter Glo Reagent is prepared according to the instructions of the kit (Promega Inc.): Reagent is mixed 1:1 with cell culture medium. Thereon, mixture and assay plates are equilibrated at room temperature for 20 min. Equal volumes of the reagent-medium-mixture is added to the volume of culture medium present in each well. The plates are mixed at ∼200 rpm for 2 minutes on an orbital shaker. The microplates are then incubated at room temperature for 10 minutes for stabilization of the luminescent signal. Following incubation the luminescence is recorded on a Victor microplate reader (Perkin Elmer) using a 200 ms integration time. The data is then analyzed with Excel using the XLFIT Plugin (dose response Fit 205) for IC50-determination. As quality control the Z'-factor is calculated from 16 positive and negative control values. Only assay results showing a Z'-factor ≥ 0.5 are used for further analysis.

H1975 = experiment: CellTiter-Glo cell viability, H1975; assay type: cell-based; conditions: Homo sapiens, NCI-H1975, 72 h, read-out: H1975 CTG IC50
Method: as §1

EGFR vIII Ba/F3 = experiment: CellTiter-Glo cell viability, EGFR vIII Ba/F3; assay type: cell-based; conditions: Mus musculus, BaF3, 72 h, read-out: EGFR vIII Ba/F3 CTG IC50 /
Method: as §1

HER2 INS YVMA = target: T1, HER2 INS YVMA (Homo sapiens, UniProt P04626, INS775YVMA); experiment: Lance Kinase Activity Assay, Her2 Exon 20 InsYVMA; conditions: biochemical Lance assay
T1 construct: purchased DPF
T1 sequence (P04626 with tags, fused parts or gaps INS775YVMA): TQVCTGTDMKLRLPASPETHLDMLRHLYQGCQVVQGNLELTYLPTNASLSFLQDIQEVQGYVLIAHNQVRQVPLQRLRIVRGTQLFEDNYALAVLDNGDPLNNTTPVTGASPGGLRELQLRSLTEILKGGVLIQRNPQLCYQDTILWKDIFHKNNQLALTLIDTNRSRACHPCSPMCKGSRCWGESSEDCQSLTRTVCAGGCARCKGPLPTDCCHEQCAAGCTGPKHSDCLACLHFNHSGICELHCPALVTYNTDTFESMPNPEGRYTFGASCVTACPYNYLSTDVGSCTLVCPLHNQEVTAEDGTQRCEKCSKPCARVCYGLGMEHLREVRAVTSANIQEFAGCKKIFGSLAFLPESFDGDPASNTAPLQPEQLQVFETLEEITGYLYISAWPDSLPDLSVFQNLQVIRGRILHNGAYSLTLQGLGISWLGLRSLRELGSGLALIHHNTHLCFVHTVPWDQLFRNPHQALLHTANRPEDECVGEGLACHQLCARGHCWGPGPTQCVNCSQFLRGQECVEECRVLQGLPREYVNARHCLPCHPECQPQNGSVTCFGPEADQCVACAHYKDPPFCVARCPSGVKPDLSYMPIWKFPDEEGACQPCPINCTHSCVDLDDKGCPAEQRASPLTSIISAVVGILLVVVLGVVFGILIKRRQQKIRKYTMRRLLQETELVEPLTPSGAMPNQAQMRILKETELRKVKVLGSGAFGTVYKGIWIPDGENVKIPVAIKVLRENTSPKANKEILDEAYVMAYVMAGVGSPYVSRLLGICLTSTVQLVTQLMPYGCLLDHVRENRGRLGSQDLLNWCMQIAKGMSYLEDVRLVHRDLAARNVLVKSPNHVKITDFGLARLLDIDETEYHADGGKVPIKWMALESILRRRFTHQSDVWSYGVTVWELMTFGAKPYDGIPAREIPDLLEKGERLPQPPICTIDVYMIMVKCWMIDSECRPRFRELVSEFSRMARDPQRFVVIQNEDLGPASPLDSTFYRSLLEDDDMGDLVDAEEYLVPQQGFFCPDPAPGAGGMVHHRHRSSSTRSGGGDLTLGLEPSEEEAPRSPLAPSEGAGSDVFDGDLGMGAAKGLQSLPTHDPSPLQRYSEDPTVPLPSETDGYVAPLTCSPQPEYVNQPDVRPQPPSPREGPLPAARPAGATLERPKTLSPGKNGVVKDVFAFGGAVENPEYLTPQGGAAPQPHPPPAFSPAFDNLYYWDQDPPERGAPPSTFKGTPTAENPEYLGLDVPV
Method: This protocol describes how the Lance Kinase Activity Assay was performed to determine IC50 values of compounds of general formula (I) against HER2 INS YVMA. The principle behind this enzymatic assay is based upon the phosphorylation of the Ulight-peptide substrate. It is detected by using a specific EU-labeled anti-phospho peptide antibody. The binding of the Eu labeled anti-phospho peptide antibody to the phosphorylated ULight labeled peptide gives rise to a FRET-signal. Binding of an inhibitor to the kinase prevents phosphorylation of the Ulight-substrate, resulting in a loss of FRET. In table 2 is summarized the relevant information for the LANCE assay. Table 2: Reagents, stock concentrations and final assay concentrations for Her2 INS YVMA.
The compounds of general formula (I) summarized in Table 3 were serial diluted from a 10 mM DMSO stock solution 1:3 over 8 steps in a total volume of 20 µl. For every sample, 8 µl of kinase-substrate mix was transferred into a suitable assay plate (e.g. Corning #3673). Compound was added via pintool transfer (10nl/well) using a Biomek FX robot (BeckmanCoulter). Reaction was started by addition of 2µl ATP working solution and mixed using variomag teleshaker (Thermo Fischer Scientific). After 1 h incubation at room temperature the reaction was stopped with 10µl detection mix containing the Eu-labeled phosphospecific antibody and 10mM EDTA. After a second incubation period of 1 h at room temperature the FRET signal was measured at 340 nm excitation, 665 nm and 615 nm emission (for the ULight-substrate and Eu-AB, respectively) with an Envision spectrophotometer (Perkin Elmer, Waltham, MA, USA) with 50 µs delay and 300 µs integration time. IC50 values were determined from the sigmoidal dose response curves with the software Quattro Workflow (Quattro GmbH, Munich, Germany).

A431 = experiment: CellTiter-Glo cell viability, A431; assay type: cell-based; conditions: Homo sapiens, A-431, 72 h, read-out: A431 CTG IC50
Method: as §1

EGFR L858R Ba/F3 = experiment: CellTiter-Glo cell viability, EGFR L858R Ba/F3; assay type: cell-based; conditions: Mus musculus, BaF3, 72 h, read-out: EGFR L858R Ba/F3 CTG IC50 /
Method: as §1

EGFR L858R T790M Ba/F3 = experiment: CellTiter-Glo cell viability, EGFR L858R T790M Ba/F3; assay type: cell-based; conditions: Mus musculus, BaF3, 72 h, read-out: EGFR L858R T790M Ba/F3 CTG IC50 /
Method: as §1

[1] = test system: EGFR Exon 20 InsNPH Ba/F3; experiment: CellTiter-Glo cell viability, EGFR Exon 20 InsNPH Ba/F3; assay type: cell-based; conditions: Mus musculus, BaF3, 72 h, read-out: EGFR Exon 20 InsNPH Ba/F3 CTG IC50
Method: as §1

EGFR (del746-750) = EGFR (del746-750) (Homo sapiens, UniProt P00533, DEL746-750); experiment: Lance assay, EGFR (del746-750); conditions: biochemical Lance assay
Chain of EGFR (del746-750) (P00533 with tags, fused parts or gaps DEL746-750): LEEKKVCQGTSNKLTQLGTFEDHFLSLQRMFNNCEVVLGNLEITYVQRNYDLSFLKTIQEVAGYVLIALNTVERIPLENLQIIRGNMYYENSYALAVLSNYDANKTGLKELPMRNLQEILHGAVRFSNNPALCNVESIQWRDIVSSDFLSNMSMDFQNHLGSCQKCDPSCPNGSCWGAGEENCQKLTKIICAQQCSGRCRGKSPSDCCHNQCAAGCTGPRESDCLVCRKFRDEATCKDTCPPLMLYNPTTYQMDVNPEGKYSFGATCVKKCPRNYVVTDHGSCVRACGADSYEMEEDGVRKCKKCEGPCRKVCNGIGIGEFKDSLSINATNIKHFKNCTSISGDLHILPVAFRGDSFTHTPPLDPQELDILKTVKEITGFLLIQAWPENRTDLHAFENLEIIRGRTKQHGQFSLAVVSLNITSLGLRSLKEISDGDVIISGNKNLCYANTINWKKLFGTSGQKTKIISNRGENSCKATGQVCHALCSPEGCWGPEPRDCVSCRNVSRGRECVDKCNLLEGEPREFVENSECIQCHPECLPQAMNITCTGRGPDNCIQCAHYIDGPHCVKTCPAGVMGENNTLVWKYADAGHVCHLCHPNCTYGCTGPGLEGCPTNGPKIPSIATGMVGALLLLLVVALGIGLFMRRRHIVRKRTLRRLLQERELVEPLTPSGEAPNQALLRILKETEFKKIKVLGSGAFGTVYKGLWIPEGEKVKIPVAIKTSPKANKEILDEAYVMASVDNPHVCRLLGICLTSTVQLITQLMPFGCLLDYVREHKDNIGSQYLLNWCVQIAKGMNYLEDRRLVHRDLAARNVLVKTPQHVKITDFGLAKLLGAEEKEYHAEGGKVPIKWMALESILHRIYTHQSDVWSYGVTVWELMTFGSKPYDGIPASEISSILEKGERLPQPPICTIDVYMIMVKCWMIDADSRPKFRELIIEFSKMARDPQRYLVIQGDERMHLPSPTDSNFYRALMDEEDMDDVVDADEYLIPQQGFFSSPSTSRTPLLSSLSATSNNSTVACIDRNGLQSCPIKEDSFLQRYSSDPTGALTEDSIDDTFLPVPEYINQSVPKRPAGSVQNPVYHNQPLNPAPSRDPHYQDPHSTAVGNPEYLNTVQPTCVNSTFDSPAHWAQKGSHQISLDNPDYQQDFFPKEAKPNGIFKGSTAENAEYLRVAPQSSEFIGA

EGFR T790M L858R = EGFR T790M L858R (Homo sapiens, UniProt P00533, L858R/T790M); experiment: Lance assay, EGFR T790M L858R; conditions: biochemical Lance assay
Chain of EGFR T790M L858R (P00533 25-1210 T790M/L858R): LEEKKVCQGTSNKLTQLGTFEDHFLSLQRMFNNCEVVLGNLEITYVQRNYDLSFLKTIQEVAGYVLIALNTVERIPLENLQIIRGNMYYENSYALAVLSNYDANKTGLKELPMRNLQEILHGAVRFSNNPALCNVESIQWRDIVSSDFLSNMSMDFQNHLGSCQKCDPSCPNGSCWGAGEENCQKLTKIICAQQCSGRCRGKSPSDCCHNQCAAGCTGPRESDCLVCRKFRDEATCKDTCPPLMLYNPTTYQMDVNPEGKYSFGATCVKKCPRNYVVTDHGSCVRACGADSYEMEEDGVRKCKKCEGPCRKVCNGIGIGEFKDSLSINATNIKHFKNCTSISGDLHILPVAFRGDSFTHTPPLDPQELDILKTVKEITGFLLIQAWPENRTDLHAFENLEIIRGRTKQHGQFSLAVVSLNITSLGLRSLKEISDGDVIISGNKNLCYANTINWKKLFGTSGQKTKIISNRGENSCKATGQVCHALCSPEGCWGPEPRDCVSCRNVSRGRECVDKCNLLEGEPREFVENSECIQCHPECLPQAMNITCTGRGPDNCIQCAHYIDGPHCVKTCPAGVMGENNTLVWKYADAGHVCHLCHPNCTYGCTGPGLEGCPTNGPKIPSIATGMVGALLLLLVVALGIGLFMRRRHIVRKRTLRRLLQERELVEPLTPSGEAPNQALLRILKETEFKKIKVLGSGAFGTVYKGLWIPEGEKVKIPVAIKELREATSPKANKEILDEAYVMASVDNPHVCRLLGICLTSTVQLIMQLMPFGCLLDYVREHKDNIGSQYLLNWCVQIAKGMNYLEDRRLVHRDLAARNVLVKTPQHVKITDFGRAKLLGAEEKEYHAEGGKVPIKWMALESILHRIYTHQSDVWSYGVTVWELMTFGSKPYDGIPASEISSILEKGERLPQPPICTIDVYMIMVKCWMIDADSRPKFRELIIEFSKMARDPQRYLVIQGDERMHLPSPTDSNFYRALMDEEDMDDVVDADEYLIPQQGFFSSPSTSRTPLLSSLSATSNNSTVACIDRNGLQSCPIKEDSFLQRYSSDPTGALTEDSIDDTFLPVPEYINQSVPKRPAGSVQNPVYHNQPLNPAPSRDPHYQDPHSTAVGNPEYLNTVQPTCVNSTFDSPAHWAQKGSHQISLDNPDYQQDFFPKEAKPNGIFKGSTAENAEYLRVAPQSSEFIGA

[2] = test system: Her2 Exon 20 InsYVMA Ba/F3; experiment: CellTiter-Glo cell viability, Her2 Exon 20 InsYVMA Ba/F3; assay type: cell-based; conditions: Mus musculus, BaF3, 72 h, read-out: Her2 Exon 20 InsYVMA Ba/F3 CTG IC50
Method: as §1

EGFR wt = EGFR wt (Homo sapiens, UniProt P00533); experiment: Lance assay, EGFR wt; conditions: biochemical Lance assay
EGFR L858R = EGFR L858R (Homo sapiens, UniProt P00533, L858R); experiment: Lance assay, EGFR L858R; conditions: biochemical Lance assay
Chain of EGFR L858R (P00533 25-1210 L858R): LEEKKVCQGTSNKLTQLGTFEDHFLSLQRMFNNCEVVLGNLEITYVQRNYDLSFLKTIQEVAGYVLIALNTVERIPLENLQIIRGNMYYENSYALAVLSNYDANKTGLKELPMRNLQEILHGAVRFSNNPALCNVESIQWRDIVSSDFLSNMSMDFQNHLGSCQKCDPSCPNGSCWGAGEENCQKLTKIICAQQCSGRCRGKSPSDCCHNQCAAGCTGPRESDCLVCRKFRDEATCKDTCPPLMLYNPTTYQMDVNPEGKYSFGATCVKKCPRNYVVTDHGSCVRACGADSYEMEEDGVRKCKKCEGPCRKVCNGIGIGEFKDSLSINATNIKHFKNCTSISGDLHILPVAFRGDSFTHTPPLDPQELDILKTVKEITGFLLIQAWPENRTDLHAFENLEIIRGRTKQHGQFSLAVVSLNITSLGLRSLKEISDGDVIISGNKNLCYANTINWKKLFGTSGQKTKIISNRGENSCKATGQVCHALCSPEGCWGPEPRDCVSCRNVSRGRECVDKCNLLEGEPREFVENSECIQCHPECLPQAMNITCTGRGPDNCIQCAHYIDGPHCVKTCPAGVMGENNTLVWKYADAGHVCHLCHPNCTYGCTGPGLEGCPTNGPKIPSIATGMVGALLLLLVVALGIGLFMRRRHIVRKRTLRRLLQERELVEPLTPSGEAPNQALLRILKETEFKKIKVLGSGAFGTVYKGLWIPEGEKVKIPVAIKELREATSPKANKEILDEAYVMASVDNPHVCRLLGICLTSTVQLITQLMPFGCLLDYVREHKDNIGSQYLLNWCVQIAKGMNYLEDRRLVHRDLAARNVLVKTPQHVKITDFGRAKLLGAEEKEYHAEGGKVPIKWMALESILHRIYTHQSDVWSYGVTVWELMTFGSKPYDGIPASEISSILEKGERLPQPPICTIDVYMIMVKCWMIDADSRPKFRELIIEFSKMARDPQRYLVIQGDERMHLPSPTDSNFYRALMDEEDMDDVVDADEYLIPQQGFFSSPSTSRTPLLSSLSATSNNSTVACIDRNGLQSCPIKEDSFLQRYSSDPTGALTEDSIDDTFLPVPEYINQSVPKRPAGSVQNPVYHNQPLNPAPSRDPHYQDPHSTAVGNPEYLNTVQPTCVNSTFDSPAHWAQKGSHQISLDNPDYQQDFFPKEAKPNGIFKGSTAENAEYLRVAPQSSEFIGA

Compound	IC50 (Cuto-17) [nM]	IC50 (H1975) [nM]	IC50 (EGFR vIII Ba/F3) [nM]	IC50 (HER2 INS YVMA) [nM]	IC50 (A431) [nM]	IC50 (EGFR L858R Ba/F3) [nM]	IC50 (EGFR L858R T790M Ba/F3) [nM]	IC50 [1] [nM]	IC50 (EGFR (del746-750)) [nM]	IC50 (EGFR T790M L858R) [nM]	IC50 [2] [nM]	IC50 (EGFR wt) [nM]	IC50 (EGFR L858R) [nM]
C=CC(=O)Nc1cc(-c2c(-c3cnn(C)c3)[nH]c3ncc(C(=O)OC(C)C)cc23)ccc1C [Example 1, Isopropyl 3-(3-acrylamido-4-methylphenyl)-2-(1-methyl-1H-pyrazol-4-yl)-1H-pyrrolo[2,3-b]pyridine-5-carboxylate 2,2,2-trifluoroacetate]	500 to 1000	500 to 1000	100 to 500	50 to 100	1000 to 10000	≤ 50	≤ 50	100 to 500	≤ 50	≤ 50	100 to 500	≤ 50	≤ 50
C=CC(=O)Nc1cc(-c2c(-c3cnn(C)c3)[nH]c3ncc(OCC(C)C)cc23)ccc1C [Example 4, N-(5-(5-isobutoxy-2-(1-methyl-1H-pyrazol-4-yl)-1H-pyrrolo[2,3-b]pyridin-3-yl)-2-methylphenyl)acrylamide 2,2,2-trifluoroacetate]	100 to 500	100 to 500	≤ 50	50 to 100	1000 to 10000	≤ 50	≤ 50	100 to 500	≤ 50	50 to 100	100 to 500	≤ 50	≤ 50
C=CC(=O)Nc1cc(-c2c(-c3cnn(C)c3)[nH]c3ncc(-c4cnn(CC(C)C)c4)cc23)ccc1C [Example 32, N-(5-(5-(1-isobutyl-1H-pyrazol-4-yl)-2-(1-methyl-1H-pyrazol-4-yl)-1H-pyrrolo[2,3-b]pyridin-3-yl)-2-methylphenyl)acrylamide]			≤ 50	100 to 500	1000 to 10000	≤ 50	100 to 500	50 to 100	≤ 50	100 to 500	100 to 500	≤ 50	≤ 50
C=CC(=O)Nc1cc(-c2c(-c3cnn(C)c3)[nH]c3ncc(-c4cnn(CCOC)c4)cc23)ccc1C [Example 33, N-(5-(5-(1-(2-methoxyethyl)-1 H-pyrazol-4-yl)-2-(1-methyl-1 H-pyrazol-4-yl)-1H-pyrrolo[2,3-b]pyridin-3-yl)-2-methylphenyl)acrylamide]			≤ 50	50 to 100	1000 to 10000	≤ 50	100 to 500	100 to 500	≤ 50	≤ 50	500 to 1000	≤ 50	≤ 50
C=CC(=O)Nc1cc(-c2c(-c3cnn(C)c3)[nH]c3ncc(-c4cnn(CCN(C)C)c4)cc23)ccc1C [Example 34, N-(5-(5-(1-(2-(dimethylamino)ethyl)-1H-pyrazol-4-yl)-2-(1-methyl-1H-pyrazol-4-yl)-1H-pyrrolo[2,3-b]pyridin-3-yl)-2-methylphenyl)acrylamide]			1000 to 10000	500 to 1000	1000 to 10000	> 10000	1000 to 10000	1000 to 10000	≤ 50	100 to 500	> 10000	≤ 50	≤ 50
C=CC(=O)Nc1cc(-c2c(-c3cnn(C)c3)[nH]c3ncc(-c4cnn(C5COC5)c4)cc23)ccc1C [Example 35, N-(2-methyl-5-(2-(1-methyl-1H-pyrazol-4-yl)-5-(1-(oxetan-3-yl)-1 H-pyrazol-4-yl)-1H-pyrrolo[2,3-b]pyridin-3-yl)phenyl)acrylamide]			100 to 500	100 to 500	1000 to 10000	≤ 50	100 to 500	500 to 1000	≤ 50	≤ 50	1000 to 10000	≤ 50	≤ 50
